In PubChem BioAssay (NCI):
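GI50 = concentration required for 50% inhibition of growth. TGI: total growth inhibition.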

Columns and labels:
Experiment in all cases: NCI anticancer screen, dose series, 384-well format
[1] = system: RPMI-8226 leukemia
[2] = system: HCT-15 colon
[3] = system: HCT-116 colon
[4] = system: MDA-MB-435 melanoma
[5] = system: HT29 colon
[6] = system: T-47D breast
[7] = system: DU-145 prostate
[8] = system: SF-295 CNS
[9] = system: SF-539 CNS
[10] = system: SK-MEL-5 melanoma
[11] = system: NCI/ADR-RES ovarian
[12] = system: CAKI-1 renal
[13] = system: U251 glioblastoma

`N=C(N)c1ccc2nc(-c3cc(CC(=O)N[C@@H](CC(=O)O)C(=O)O)cc(-c4cc(S(N)(=O)=O)ccc4O)c3O)[nH]c2c1` gave a GI50 [1] of over 100 µM, a TGI [1] of over 100 µM and a GI50 [2] of over 100 µM. The TGI [2] was over 100 µM, the GI50 [3] was over 100 µM and the TGI [3] was over 100 µM. It also gave a GI50 [4] of over 100 µM, a TGI [4] of over 100 µM and a GI50 [5] of over 100 µM. It also gave a TGI [5] of over 100 µM, a GI50 [6] of over 100 µM and a TGI [6] of over 100 µM. It also gave a GI50 [7] of over 100 µM, a TGI [7] of over 100 µM and a GI50 [8] of over 100 µM. For the same compound, the TGI [8] was over 100 µM, the GI50 [9] was over 100 µM and the TGI [9] was over 100 µM. It also gave a GI50 [10] of over 100 µM, a TGI [10] of over 100 µM and a GI50 [11] of over 100 µM. For the same compound, the TGI [11] was over 100 µM, the GI50 [12] was over 100 µM and the TGI [12] was over 100 µM. The GI50 [13] was over 100 µM and the TGI [13] was over 100 µM.
